What was measured:
Experiment in all cases: relative viability (nuclei count vs DMSO), 5 days (fraction); higher = more cells survive
4EGI-1 + AZD7762 = compound: O=C(O)C(Cc1ccccc1[N+](=O)[O-])=NNc1nc(-c2ccc(Cl)c(Cl)c2)cs1 (mixture of isomers) [4EGI-1] + NC(=O)Nc1cc(-c2cccc(F)c2)sc1C(=O)N[C@H]1CCCNC1 [AZD7762] (partner 0.2 µM)
In short: (§1)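 Each reported value is a median over duplicate plates. It expresses relative viability: treated-well nuclei count divided by vehicle-well nuclei count. Lung cancer cell lines in 1536-well plates were dosed by pin tool a day after seeding, alone with one drug or with a fixed anchor-drug dose plus five library-drug doses (not always all listed) in √10 steps, and nuclei were counted after 5 days.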

XMD8-85 + OSI-027 = compound: CN1CCN(CC1)C2=CC(=C(C=C2)NC3=NC=C4C(=N3)N(C5=CC=CC=C5C(=O)N4C)C)OC [XMD8-85] + COc1cccc2cc(-c3nc([C@H]4CC[C@H](C(=O)O)CC4)n4ncnc(N)c34)[nH]c12 [OSI-027] (partner 0.5 µM)
In short: as §1

4EGI-1 + Luminespib = compound: O=C(O)C(Cc1ccccc1[N+](=O)[O-])=NNc1nc(-c2ccc(Cl)c(Cl)c2)cs1 (mixture of isomers) [4EGI-1] + CCNC(=O)c1noc(-c2cc(C(C)C)c(O)cc2O)c1-c1ccc(CN2CCOCC2)cc1 [Luminespib] (partner 0.01 µM)
In short: as §1

4EGI-1 + Lapatinib = compound: O=C(O)C(Cc1ccccc1[N+](=O)[O-])=NNc1nc(-c2ccc(Cl)c(Cl)c2)cs1 (mixture of isomers) [4EGI-1] + CS(=O)(=O)CCNCc1ccc(-c2ccc3ncnc(Nc4ccc(OCc5cccc(F)c5)c(Cl)c4)c3c2)o1 [Lapatinib] (partner 2 µM)
In short: as §1

Cell Line	relative viability (4EGI-1 + AZD7762; first compound 0.5 µM)	relative viability (4EGI-1 + AZD7762; first compound 1.581 µM)	relative viability (4EGI-1 + AZD7762; first compound 5 µM)	relative viability (4EGI-1 + AZD7762; first compound 15.81 µM)	relative viability (4EGI-1 + AZD7762; first compound 50 µM)	relative viability (XMD8-85 + OSI-027; first compound 0.08 µM)	relative viability (XMD8-85 + OSI-027; first compound 0.253 µM)	relative viability (XMD8-85 + OSI-027; first compound 0.8 µM)	relative viability (XMD8-85 + OSI-027; first compound 2.53 µM)	relative viability (XMD8-85 + OSI-027; first compound 8 µM)	relative viability (4EGI-1 + Luminespib; first compound 0.5 µM)	relative viability (4EGI-1 + Luminespib; first compound 1.581 µM)	relative viability (4EGI-1 + Luminespib; first compound 5 µM)	relative viability (4EGI-1 + Luminespib; first compound 15.81 µM)	relative viability (4EGI-1 + Luminespib; first compound 50 µM)	relative viability (4EGI-1 + Lapatinib; first compound 0.5 µM)	relative viability (4EGI-1 + Lapatinib; first compound 1.581 µM)	relative viability (4EGI-1 + Lapatinib; first compound 5 µM)	relative viability (4EGI-1 + Lapatinib; first compound 15.81 µM)	relative viability (4EGI-1 + Lapatinib; first compound 50 µM)
201T	0.797	0.514	0.736	0.619	0.495	0.88	0.824	0.398	0.367	0.493	1.08	0.973	1.09	0.92	0.782	1.04	0.986	1.04	1.02	0.659
LK-2	0.543		0.451	0.344	0.177	0.167	0.196	0.185	0.192	0.162	0.192		0.269	0.206	0.162	1.04		0.978	0.984	0.745
EMC-BAC-2	1.36		1.17	1	0.599	0.358	0.385	0.368	0.404	0.313	1.25	1.01	1.16	1.15	1.06	1.06	0.744	0.89	0.913	0.88
NCI-H1755	0.441	0.411	0.457	0.344	0.252	0.677	0.787	0.645		0.531	0.583	0.665	0.418	0.42	0.327	1.06	1.01	0.967	0.883	0.284
NCI-H2405	0.746		0.851	0.692	0.285	0.6	0.645	0.604	0.598	0.631	0.7	0.486	0.836	0.672	0.771	1.27	0.801	1.23	1.09	0.685
PC-14	0.342		0.367	0.117	0.0594	0.835	0.971	0.776		0.373	0.466		0.195	0.155	0.155	0.355	0.353	0.371		0.296
NCI-H596	1.07	1.21	1.31	0.769	0.279	0.69	0.918	0.773	0.795		1.02	0.955	1.03	1.07	0.508	1.07	1.03	1.23	0.958	0.609
HARA	0.397	0.48	0.241	0.195	0.161	0.467	0.574	0.523	0.478	0.229	0.954	0.958	0.968	0.645	0.0683	0.697	0.732	0.817	0.724	0.257
NCI-H460	0.572		0.705	0.24	0.302	0.557	0.626	0.901	0.731	0.239	0.038		0.0367	0.0323	0.0228	1.09		0.975	0.131	0.0327
NCI-H322M	0.604		0.563	0.417	0.36	0.506		0.571	0.504	0.37	1		0.855	0.727	0.321	0.617	0.558	0.637	0.566	0.427
NCI-H1734	0.596	0.455	0.573	0.32	0.178	0.579	0.664	0.609	0.699	0.425	0.203	0.193	0.22	0.2	0.177	1.15	0.939	1.15	0.903	0.393
NCI-H2170	0.923	0.806	1.03	0.697	0.244	0.676	0.685	0.739		0.613	0.931	0.635	0.778	0.741	0.352	0.32	0.266	0.289	0.264	0.235
HCC-15	1.21	1.12	1.26	1.17	1.28	0.615	0.689	0.669		0.541	0.25	0.437	0.268	0.157	0.152	0.949	0.914	0.871	0.8	0.423
NCI-H1651	0.519	0.43	0.521	0.31	0.195	0.752	0.695	0.676	0.647	0.638	0.975	0.658	1.01	0.933	0.924	0.993	0.85	0.813	0.665	0.185
LOU-NH91	0.811		0.781	0.72	0.439	0.705	0.735	0.672	0.827		0.351		0.398	0.328	0.34	0.807		0.822	0.787	0.552
NCI-H3122	1.01	0.972	0.957	0.926	0.48	0.867	1.02	1.34	1.08	0.532	0.082	0.129	0.0842	0.106	0.084	1.05	0.922	1.02	0.955	0.578
NCI-H1395	0.44		0.393	0.344	0.374	0.754	0.64	0.667	0.664	0.489	0.717	0.436	0.766	0.789	0.496	0.975		1.18	0.832	0.413

Cell Line	relative viability (4EGI-1 + AZD7762; first compound 0.5 µM)	relative viability (4EGI-1 + AZD7762; first compound 1.581 µM)	relative viability (4EGI-1 + AZD7762; first compound 5 µM)	relative viability (4EGI-1 + AZD7762; first compound 15.81 µM)	relative viability (4EGI-1 + AZD7762; first compound 50 µM)	relative viability (XMD8-85 + OSI-027; first compound 0.08 µM)	relative viability (XMD8-85 + OSI-027; first compound 0.253 µM)	relative viability (XMD8-85 + OSI-027; first compound 0.8 µM)	relative viability (XMD8-85 + OSI-027; first compound 2.53 µM)	relative viability (XMD8-85 + OSI-027; first compound 8 µM)	relative viability (4EGI-1 + Luminespib; first compound 0.5 µM)	relative viability (4EGI-1 + Luminespib; first compound 1.581 µM)	relative viability (4EGI-1 + Luminespib; first compound 5 µM)	relative viability (4EGI-1 + Luminespib; first compound 15.81 µM)	relative viability (4EGI-1 + Luminespib; first compound 50 µM)	relative viability (4EGI-1 + Lapatinib; first compound 0.5 µM)	relative viability (4EGI-1 + Lapatinib; first compound 1.581 µM)	relative viability (4EGI-1 + Lapatinib; first compound 5 µM)	relative viability (4EGI-1 + Lapatinib; first compound 15.81 µM)	relative viability (4EGI-1 + Lapatinib; first compound 50 µM)
HCC-44	1.02	0.984	0.976	0.922	0.799	0.51	0.55	0.46	0.456	0.3	1.22		0.979	0.764	0.23	0.985	0.802	0.929	0.809	0.366
EPLC-272H	0.264		0.239	0.151	0.0667	0.282	0.251	0.266	0.305	0.27	0.498		0.318	0.251	0.206	1.03	0.501	0.909	0.624	0.39
PC-3 [JPC-3]	0.845		0.868	0.519	0.323	0.769	0.754	0.698	0.814	0.71	0.829	0.717	0.718		0.543	0.518	0.416	0.443		0.39
NCI-H1944	0.626		0.604	0.453	0.212	0.391	0.442	0.461	0.514	0.297	0.717		0.774	0.633	0.561	0.816		0.776	0.745	0.456
RERF-LC-KJ	0.984	0.605	1.11	0.669	0.604	0.684	0.504	0.645	0.577	0.461	1.16		1.17	0.994	0.281	0.93	0.677	0.808	0.64	0.644
NCI-H2085	1.1	1.02	0.969	0.736	0.655	0.712	0.969	0.697	0.64	0.474	0.461	0.452	0.468	0.396	0.355	0.857	0.769	0.807	0.586	0.357
CAL-12T	0.643		0.649	0.518	0.366	0.556	0.735	0.693	0.409	0.235	0.411	0.149	0.186	0.4	0.251			0.634	0.701	0.529
NCI-H1437	1.09	1.01	1.09	0.525	0.315	0.862	0.876	0.902	0.852	0.595	1.19	1.05	1.15	0.862	0.457	0.914	0.861	0.671	0.184	0.127
LU99A	0.546	0.235	0.323	0.237	0.141	0.264	0.31	0.306	0.33	0.258	0.246	0.271	0.308	0.228	0.205	1.04		1.08	0.739	0.214
NCI-H2347	0.858	0.78	0.734	0.732	0.593	0.447	0.382	0.421	0.578	0.454	0.499		0.438	0.426	0.411	0.898	0.746	0.909	0.855	0.844
EKVX	0.812		0.649	0.546	0.656	0.746	0.872	0.661	0.73		0.847	0.628	0.925	0.701	0.895	0.222	0.17	0.184	0.204	0.18
H3255	1.02	0.793	0.981	0.554	0.53	0.599	0.597	0.611	0.603	0.469	1.07	0.674	0.991	0.621	0.733	0.254	0.228	0.259	0.222	0.279
NCI-H1793	0.766	0.41	0.809	0.276	0.218	0.317	0.259	0.243	0.286	0.276	0.246	0.246	0.197	0.176	0.139	0.637	0.886	0.556	0.814	0.402
ABC-1	0.758		0.774	0.506	0.516	0.473	0.296	0.546	0.526	0.41	0.83	0.326	0.792	0.402	0.201	1.06	1.46	1.24	1.17	1.16
NCI-H647	0.375		0.643	0.192	0.101	0.568	0.681	0.667	0.602	0.685	0.227		0.149	0.137	0.141	1.03	0.989	1.08	0.505	0.124
NCI-H727	0.631	0.631	0.511	0.519	0.478	0.631	0.772	0.705	0.535	0.359	0.506	0.381	0.273	0.449	0.429	0.96	0.712	0.96	0.724	0.391
NCI-H1915	0.775	0.546	0.69	0.726	0.301	0.622	0.648	0.651	0.672	0.507	0.838	0.606	0.774	0.572	0.222	0.99	0.747	0.954	1.03	0.679

Source: the supplement of paper PMC10307832
